According to patent EP1247803A2, “Indolinone compounds suitable for modulation of protein kinases” (Sugen, Inc., priority 1996, dated 1998):

What was measured:
PDGF-R = PDGF-R (Homo sapiens, UniProt P09619); assay: PDGF-R ELISA; assay type: cell-based
Text: A PDGF-R ELISA is described in International Patent Publication No. WO 96/40116, published December 19, 1996 by Tang et al.

EGFR = molecular target: T1, EGFR (Homo sapiens, UniProt P00533); assay: EGFR ELISA assay (in vitro kinase activity, EGFR captured from A431 cell lysate); assay type: biochemical; set-up: concentration or dose not given beside the values
T1 construct: Add 7 ug A431 cell lysate per well (EGFR source); endogenous in cells; host or cells: A431
T1 sequence (P00533 25-1210): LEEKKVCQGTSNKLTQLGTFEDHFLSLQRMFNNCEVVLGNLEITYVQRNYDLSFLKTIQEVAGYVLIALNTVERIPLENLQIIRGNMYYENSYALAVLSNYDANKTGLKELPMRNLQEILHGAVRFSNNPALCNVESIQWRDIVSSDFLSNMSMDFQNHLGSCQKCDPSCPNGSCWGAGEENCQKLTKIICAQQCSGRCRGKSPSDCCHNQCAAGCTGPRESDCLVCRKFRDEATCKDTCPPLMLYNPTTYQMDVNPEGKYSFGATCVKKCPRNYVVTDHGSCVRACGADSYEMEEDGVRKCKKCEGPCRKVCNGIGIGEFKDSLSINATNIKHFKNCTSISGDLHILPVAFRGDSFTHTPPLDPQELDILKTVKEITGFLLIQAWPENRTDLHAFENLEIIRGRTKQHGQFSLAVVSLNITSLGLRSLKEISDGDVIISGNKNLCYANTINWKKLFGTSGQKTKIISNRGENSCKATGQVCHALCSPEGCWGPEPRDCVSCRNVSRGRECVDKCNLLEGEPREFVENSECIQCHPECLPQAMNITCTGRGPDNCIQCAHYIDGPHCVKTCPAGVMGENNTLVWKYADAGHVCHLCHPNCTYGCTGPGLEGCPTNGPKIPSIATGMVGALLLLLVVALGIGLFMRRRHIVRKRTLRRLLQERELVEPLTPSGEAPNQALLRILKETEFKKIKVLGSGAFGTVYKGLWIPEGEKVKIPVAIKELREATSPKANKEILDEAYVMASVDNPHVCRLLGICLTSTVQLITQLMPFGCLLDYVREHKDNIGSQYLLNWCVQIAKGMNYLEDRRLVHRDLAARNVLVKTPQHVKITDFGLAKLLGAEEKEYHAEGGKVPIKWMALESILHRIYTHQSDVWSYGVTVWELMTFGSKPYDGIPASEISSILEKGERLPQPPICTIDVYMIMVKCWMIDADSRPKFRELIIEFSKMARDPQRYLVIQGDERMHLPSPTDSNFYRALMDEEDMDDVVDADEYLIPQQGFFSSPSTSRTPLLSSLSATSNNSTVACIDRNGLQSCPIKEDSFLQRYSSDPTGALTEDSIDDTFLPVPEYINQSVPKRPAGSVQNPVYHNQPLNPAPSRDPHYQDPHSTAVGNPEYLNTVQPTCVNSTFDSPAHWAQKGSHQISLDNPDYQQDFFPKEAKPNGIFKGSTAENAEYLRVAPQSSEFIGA
Text: To provide a consistent method for measuring the in vitro kinase activity of the EGFR in an Enzyme-linked immunosorbent assay (Elisa).
Scope. The following protocol describes the procedures used to analyze protein tyrosine kinase activity on the EGFR in an Elisa. The procedure also describes the protocol for the initial screening of drugs for inhibition or activation of protein tyrosine kinase activity.
Reagents and Supplies. • 1. […] 05-101 monoclonal anti-EGFR antibody (commercially available from UB1) -80° C, 1 ml aliquots • 3. […] TBST Buffer Formulation: 50 mM Tris pH 7.2 150 mM NaCl 0.1% Triton X-100 • 5. Blocking Buffer Formulation: 5% Carnation Instant Milk in PBS • 6. A431 cell lysate A431 cells are available from a variety of commercial sources and may be used lysed using conventional methods known to those skilled in the art or as described for lysis of the 3T3 cells in the EGF cellular assay described herein. -80° C, 1 ml aliquots • 7. TBS Buffer Formulation: 50 mM Tris pH 7.2 150 mM NaCl • 8. […] NUNC 96-well V bottom polypropylene plates Applied Scientific Catalog # AS-72092 • 11. EDTA Formulation: 200 mM EDTA pH 8.0 • 12. […] Goat anti-rabbit IgG peroxidase conjugate Biosource Catalog # ALI0404 • 14. ABTS Solution Formulation: 100 mM Citric Acid (anhydrous) 250 mM Na2HPO4 pH 4.0 0.5 mg/ml ABTS (2,2'-azino-bis(3-ethylbenzthiazoline-6-sulfonic acid) (Sigma Catalog # A-1888) Keep solution in dark at 4 C until ready to use • 15. Hydrogen peroxide 30% solution Fisher Catalog # H325 Store in the dark at 4 C until ready to use • 16. ABTS/H2O2 Formulation: 15 mls ABTS solution 2 ul H2O2 Prepare 5 minutes before use and room temperature • 17. 0.2 M HCL stock in H2O Procedure. • 1. Coat Corning 96-well elisa plates with 0.5 ug per well 05-101 antibody. Bring final volume to 100 ul per well with PBS. Coat plates overnight at 4° C. • 2. Remove unbound 05-101 from wells by inverting plate to remove liquid. Wash 1x with distilled H2O by filling wells Pat the plate on a paper towel to remove excess liquid. • 3. Block plates with 5% milk in PBS. 150 ul per well. Incubate plate 30 minutes while shaking on a microtiter plate shaker. • 4. Wash plate 3x with dionized water, then once with TBST • 5. Add 7 ug A431 cell lysate per well (EGFR source). Add PBS to final volume of 100 ul per well Incubate 30 minutes while shaking. • 6. Wash as described in step 4. • 7. At this point, drugs or extracts are added to the wells. Dilute drugs/extracts 1:100 (unless specified otherwise) in TBS + 10% DMSO in 96-well polypropylene plates. Add 120 ul TBS to ELISA plate containing captured EGFR. Add 13.5 ul diluted drugs/extracts to ELISA plate. […] Incubate plate 30 minutes while shaking. • 8. […] (150 ul final volume in well with 3 uM ATP/5 mM MnCl2 final concentration in well.) Incubate 5 minutes while shaking vigorously. *NOTE: It is critical that ATP/MnCl2 phosphorylates the receptor for 5 minutes only. It is best to add the ATP/MnCl2 with an 12 channel pipettor 1 row at a time leaving 20 seconds between each row so that the reaction may be stopped with EDTA exactly 5 minutes later (this depends on the number of plates being phosphorylated in one batch). Shake between each addition. • 9. After 5 minutes, to stop reaction, add 16.5 ul of 200 mM EDTA pH 8.0 for 20 mM final in well, shaking continuously between each addition. This is done using the same timing method as above. After last row has received EDTA, shake plate an additional minute. • 10. Wash 4x with deionized water, twice with TBST. • 11. Add rabbit polyclonal anti-phosphotyrosine serum. Dilute 1:3000 in TBST. Add 100 ul per well. Incubate 30-45 minutes while shaking. • 12. Wash as described above in step 4. • 13. Add BioSource anti-rabbit peroxidase conjugate antibody. Dilute 1:2000 in TBST. Add 100 ul per well. Incubate 30 minutes while shaking. • 14. Wash as described in step 4. • 15. Add 100 ul of ABTS/H2O2 solution to well. Incubate 5 to 10 minutes while shaking. Remove bubbles • 16. […]

Chain of PDGF-R (P09619 33-1106, species assumed): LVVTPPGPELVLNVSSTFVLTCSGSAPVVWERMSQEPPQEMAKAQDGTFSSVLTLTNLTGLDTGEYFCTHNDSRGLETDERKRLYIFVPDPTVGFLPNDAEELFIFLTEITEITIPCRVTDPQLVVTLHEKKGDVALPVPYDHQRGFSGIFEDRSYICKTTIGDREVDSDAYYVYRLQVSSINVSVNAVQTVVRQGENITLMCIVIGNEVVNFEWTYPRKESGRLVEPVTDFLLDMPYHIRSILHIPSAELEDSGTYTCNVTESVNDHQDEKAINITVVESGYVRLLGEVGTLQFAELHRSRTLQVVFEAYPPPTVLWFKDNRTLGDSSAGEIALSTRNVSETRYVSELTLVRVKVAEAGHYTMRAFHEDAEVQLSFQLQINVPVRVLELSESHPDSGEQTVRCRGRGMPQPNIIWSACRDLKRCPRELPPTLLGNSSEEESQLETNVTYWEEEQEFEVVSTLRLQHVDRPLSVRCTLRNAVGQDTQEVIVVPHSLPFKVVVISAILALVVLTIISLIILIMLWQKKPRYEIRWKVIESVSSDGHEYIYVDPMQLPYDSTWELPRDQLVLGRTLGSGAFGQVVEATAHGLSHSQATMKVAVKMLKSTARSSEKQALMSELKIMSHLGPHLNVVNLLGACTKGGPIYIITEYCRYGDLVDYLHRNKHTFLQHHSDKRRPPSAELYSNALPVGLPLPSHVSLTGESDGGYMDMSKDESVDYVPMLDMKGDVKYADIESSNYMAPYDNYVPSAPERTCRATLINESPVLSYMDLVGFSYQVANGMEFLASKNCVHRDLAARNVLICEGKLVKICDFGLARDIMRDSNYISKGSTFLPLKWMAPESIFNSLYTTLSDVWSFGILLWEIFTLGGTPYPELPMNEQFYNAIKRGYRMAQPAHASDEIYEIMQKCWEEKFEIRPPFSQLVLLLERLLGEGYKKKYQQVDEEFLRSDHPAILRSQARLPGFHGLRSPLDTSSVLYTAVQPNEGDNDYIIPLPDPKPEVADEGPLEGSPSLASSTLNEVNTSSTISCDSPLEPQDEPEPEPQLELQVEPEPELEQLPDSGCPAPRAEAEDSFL

Structure (SMILES)	PDGF Kinase %Inhibition (PDGF-R) [%]	Biochem EGFR %Inhibition (EGFR) [%]
CNS(=O)(=O)c1ccc2c(c1)C(=Cc1coc3ccc(C(C)C)cc3c1=O)C(=O)N2 [10731/D05]	46.0	53.9
Cc1c(Br)ccc2c1C(=Cc1cc(C(C)C)c(Oc3ccccc3)c(C(C)C)c1)C(=O)N2 [10732/C04]	3.8	-14.7
COc1c(Cl)cc(C=C2C(=O)Nc3ccc(I)cc32)cc1C(C)(C)C [10732/B09]	18.4	2.0
O=C1Nc2ccc(CCCl)cc2C1=Cc1c[nH]c(=O)[nH]c1=O [10731/G08]	-13.9	13.3
COc1ccc(C=C2C(=O)Nc3c(Br)cc(Br)cc32)cc1C(C)(C)C [10732/A05]	-12.9	4.6
CNS(=O)(=O)c1ccc2c(c1)C(=CC(c1cccs1)C(F)(F)F)C(=O)N2 (centres unmarked) [10732/D02]	-24.0	8.7
CNS(=O)(=O)c1ccc2c(c1)C(=Cc1coc3ccc([N+](=O)[O-])cc3c1=O)C(=O)N2 [10731/D07]	2.7	25.9
COc1ccc(C=C2C(=O)Nc3ccc(Br)c(C)c32)cc1C(C)(C)C [10732/C05]	-17.0	-22.8
Cc1c(Br)ccc2c1C(=Cc1cc(Cl)c(OCc3ccccc3)c(C(C)(C)C)c1)C(=O)N2 [10732/C10]	5.8	1.2
COc1c(Br)cc(C=C2C(=O)Nc3ccc(Br)c(C)c32)cc1C(C)(C)C [10732/C07]	4.3	-28.6
CNS(=O)(=O)c1ccc2c(c1)C(=Cc1cc(C(C)C)c(OC)c(C(C)C)c1)C(=O)N2 [10732/D03]	26.0	-18.7
CC(C)(C)c1cc(C=C2C(=O)Nc3ccc(I)cc32)cc(Cl)c1OCc1ccccc1 [10732/B10]	0.7	0.6
CC(C)(C)c1cc(C=C2C(=O)Nc3c(Br)cc(Br)cc32)cc(Br)c1OCc1ccccc1 [10732/A08]	31.0	12.1
CCn1c2ccccc2c2cc(C=C3C(=O)Nc4ccc(CCCl)cc43)ccc21 [10731/G02]	-10.1	4.7
Cc1ccc2occ(C=C3C(=O)Nc4ccc(S(=O)(=O)Nc5ccc(C(F)(F)F)cc5)cc43)c(=O)c2c1 [10731/E06]	-12.0	10.4
COc1c(Br)cc(C=C2C(=O)Nc3ccc(I)cc32)cc1C(C)(C)C [10732/B07]	21.4	15.8
CNS(=O)(=O)c1ccc2c(c1)C(=Cc1cc(Cl)c(OC)c(C(C)(C)C)c1)C(=O)N2 [10732/D09]	15.9	-9.9

Structure (SMILES)	PDGF Kinase %Inhibition (PDGF-R) [%]	Biochem EGFR %Inhibition (EGFR) [%]
COc1ccc2[nH]cc(C=C3C(=O)Nc4ccc(S(=O)(=O)Nc5ccc(C(F)(F)F)cc5)cc43)c2c1 [10731/E09]	23.2	17.2
O=C1Nc2ccc(S(=O)(=O)Nc3ccc(C(F)(F)F)cc3)cc2C1=Cc1c[nH]c(=O)[nH]c1=O [10731/E08]	8.9	40.1
O=C1Nc2ccc(S(=O)(=O)N3CCOCC3)cc2C1=Cc1c[nH]c(=O)[nH]c1=O [10731/F08]	4.1	7.1
COc1ccc2[nH]cc(C=C3C(=O)Nc4ccc(CCCl)cc43)c2c1 [10731/G09]	-8.7	8.9
CNS(=O)(=O)c1ccc2c(c1)C(=Cc1cc(Br)c(OCc3ccccc3)c(C(C)(C)C)c1)C(=O)N2 [10732/D08]	30.5	-20.6
Cc1c(Br)ccc2c1C(=Cc1cc(Br)c(OCc3ccccc3)c(C(C)(C)C)c1)C(=O)N2 [10732/C08]	17.9	1.6
COc1c(Cl)cc(C=C2C(=O)Nc3c(Br)cc(Br)cc32)cc1C(C)(C)C [10732/A09]	8.8	39.7
O=C1Nc2ccc(S(=O)(=O)N3CCOCC3)cc2C1=Cc1coc2ccc([N+](=O)[O-])cc2c1=O [10731/F07]	1.3	37.7
CNS(=O)(=O)c1ccc2c(c1)C(=Cc1cc(Cl)c(OCc3ccccc3)c(C(C)(C)C)c1)C(=O)N2 [10732/D10]	24.5	-16.6
COc1ccc2[nH]cc(C=C3C(=O)Nc4ccc(S(=O)(=O)N5CCOCC5)cc43)c2c1 [10731/F09]	15.6	-0.7
CC(C)c1ccc2occ(C=C3C(=O)Nc4ccc(CCCl)cc43)c(=O)c2c1 [10731/G05]	8.0	18.5
C=C(C)C1CC=C(C=C2C(=O)Nc3ccc(CCCl)cc32)CC1 (centres unmarked) [10731/G04]	0.3	7.1
Cc1c(Br)ccc2c1C(=CC(c1cccs1)C(F)(F)F)C(=O)N2 (centres unmarked) [10732/C02]	7.3	-6.5
CN1C(=O)C(=C2C(=O)Nc3ccc(S(=O)(=O)N4CCOCC4)cc32)c2ccccc21 [10731/F10]	28.4	7.9
COc1c(C(C)C)cc(C=C2C(=O)Nc3c(Br)cc(Br)cc32)cc1C(C)C [10732/A03]	-3.8	0.8
CC(C)c1ccc2occ(C=C3C(=O)Nc4ccc(S(=O)(=O)Nc5ccc(C(F)(F)F)cc5)cc43)c(=O)c2c1 [10731/E05]	27.0	17.7
CN1C(=O)C(=C2C(=O)Nc3ccc(CCCl)cc32)c2ccccc21 [10731/G10]	5.6	5.5
